Laboratory results taken from patent US8242118B2, “Arylsulfonamide derivatives for use as CCR3 antagonists in the treatment of inflammatory and immunological disorders” (Axikin Pharmaceuticals Inc., priority 2001, dated 2012).
pIC50: −log10 of the molar value.

Columns and labels:
Human CCR3 = biological target: T1, Human CCR3 (Homo sapiens, UniProt P51677); assay: Receptor binding assay (RBA), [125I]-eotaxin; conditions: human CCR3-transformed K562 cells, 0.1 nM [125I]-eotaxin; compounds of about 40 to 90% purity; read-out: Activity grade RBA (IC50 class)
T1 construct: The cloned CCR3 cDNA was constructed with pcDNA3 vector and transfected into a IC562 cell line; expressed in transfected cells
T1 sequence (P51677 1-355): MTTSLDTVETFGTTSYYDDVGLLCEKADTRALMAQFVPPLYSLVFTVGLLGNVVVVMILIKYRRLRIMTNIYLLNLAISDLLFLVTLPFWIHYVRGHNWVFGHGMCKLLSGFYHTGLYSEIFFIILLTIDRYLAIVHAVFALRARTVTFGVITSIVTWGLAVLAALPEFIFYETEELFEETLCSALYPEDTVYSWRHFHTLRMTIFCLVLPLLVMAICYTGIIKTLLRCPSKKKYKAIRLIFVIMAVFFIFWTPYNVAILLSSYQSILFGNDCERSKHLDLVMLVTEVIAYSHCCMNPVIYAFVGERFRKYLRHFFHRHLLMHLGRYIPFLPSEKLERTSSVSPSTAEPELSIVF
Method in brief: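 Butyrate-pretreated (5 mM, 20-24 h) CCR3-transfected K562 cells incubated 1 h at room temperature with compound and 0.1 nM final [125I]-eotaxin in HEPES pH 7.6 buffer; bound radioactivity counted after filtration. Non-specific binding with 500 nM unlabeled eotaxin; IC50 from inhibition curve.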

Row | melting point [°C] | pIC50 (Human CCR3) | Compound
1 | 204 | 5.00 to 6.00 | Cc1cc(Oc2ccc([N+](=O)[O-])cc2S(=O)(=O)N2CCNCC2)ccc1Cl.Cl [Example 1-60]
2 | 182 | < 5.00 | CN(C)c1cccc(Oc2ccc([N+](=O)[O-])cc2S(=O)(=O)N2CCNCC2)c1.Cl [Example 1-32]
3 | 155 | 5.00 to 6.00 | CC(C)(C)c1cccc(Oc2ccc([N+](=O)[O-])cc2S(=O)(=O)N2CCNCC2)c1.Cl [Example 1-36]
4 | 119 | > 6.00 | Cl.O=[N+]([O-])c1ccc(Oc2cccc(Br)c2)c(S(=O)(=O)N2CCNCC2)c1 [Example 1-39]
5 | 168 to 170 | > 6.00 | CC(C)c1cccc(Oc2ccc([N+](=O)[O-])cc2S(=O)(=O)N2CCNCC2)c1.Cl [Example 1-9]
6 | 141 to 143 | < 5.00 | CC(C)(C)c1cc(Oc2ccc([N+](=O)[O-])cc2S(=O)(=O)N2CCNCC2)cc(C(C)(C)C)c1.Cl [Example 1-7]
7 | 196 to 198 | 5.00 to 6.00 | Cl.O=[N+]([O-])c1ccc(Oc2cccc3ccccc23)c(S(=O)(=O)N2CCNCC2)c1 [Example 1-11]
8 | 141 | > 6.00 | Cc1ccc(C)c(Oc2ccc([N+](=O)[O-])cc2S(=O)(=O)N2CCNCC2)c1.Cl [Example 1-64]
9 | 256 to 258 | > 6.00 | Cl.N[C@H]1CCN(S(=O)(=O)c2cc([N+](=O)[O-])ccc2Oc2cc(Cl)cc(Cl)c2)C1 [Example 1-100]
10 | 168 | > 6.00 | Cc1cc(Oc2cc(Cl)cc(Cl)c2)c(S(=O)(=O)N2CCNCC2)cc1[N+](=O)[O-].Cl [Example 1-45]
11 | 246 to 248 | < 5.00 | Cl.Cl.Cl.Nc1ccc(Oc2ccc([N+](=O)[O-])cc2S(=O)(=O)N2CCNCC2)cc1 [Example 1-13]
12 | 220 | 5.00 to 6.00 | Cc1ccc(C)c(Oc2ccc([N+](=O)[O-])cc2S(=O)(=O)N2CCNCC2)c1C.Cl [Example 1-61]
13 | 179 to 180 | > 6.00 | O=[N+]([O-])c1ccc(Oc2cc(Cl)ccc2Cl)c(S(=O)(=O)N2CCNCC2)c1 [Example 1-84]
14 | 238 to 239 | > 6.00 | Cc1cc(C)cc(Oc2ccc(C(F)(F)F)cc2S(=O)(=O)N2CCNCC2)c1.Cl [Example 1-43]
15 | 163 to 164 | > 6.00 | Cc1cc(C)cc(Oc2ccc([N+](=O)[O-])cc2S(=O)(=O)N2CCN(CCO)CC2)c1 [Example 1-88]
16 | 205 to 207 | < 5.00 | Cc1cc(C)cc(Oc2ccccc2S(=O)(=O)N2CCNCC2)c1.Cl [Example 1-41]
17 | 188 to 191 | > 6.00 | Cl.O=[N+]([O-])c1ccc(Oc2cc(C(F)(F)F)cc(C(F)(F)F)c2)c(S(=O)(=O)N2CCNCC2)c1 [Example 1-6]
18 | 269 to 271 | > 6.00 | Cl.O=S(=O)(c1cc(Br)ccc1Oc1cc(Cl)cc(Cl)c1)N1CCNCC1 [Example 1-57]
19 | 113 | > 6.00 | COc1cc(C)cc(Oc2ccc([N+](=O)[O-])cc2S(=O)(=O)N2CCNCC2)c1.Cl [Example 1-37]
20 | 188 to 189 | > 6.00 | Cl.O=[N+]([O-])c1ccc(Oc2cc(Cl)cc(Cl)c2Cl)c(S(=O)(=O)N2CCNCC2)c1 [Example 1-86]
21 | 113 to 114 | > 6.00 | CN(CCN1CCCCC1)S(=O)(=O)c1cc([N+](=O)[O-])ccc1Sc1cc(Cl)cc(Cl)c1 [Example 26-1, 2-[(3,5-dichlorophenyl)sulfanyl]-N-methyl-5-nitro-N-[2-(1-piperidinyl)ethyl]benzenesulfonamide]
22 | 188 | 5.00 to 6.00 | COc1cc(Oc2cc(C)cc(C)c2)c(S(=O)(=O)N2CCNCC2)cc1[N+](=O)[O-].Cl [Example 1-47]

Row | melting point [°C] | pIC50 (Human CCR3) | Compound
23 | 145 | > 6.00 | Cl.O=S(=O)(c1cc(F)ccc1Oc1cc(Cl)cc(Cl)c1)N1CCNCC1 [Example 1-51]
24 | 178 to 179 | > 6.00 | Cc1cc(Oc2ccc([N+](=O)[O-])cc2S(=O)(=O)N2CCNCC2)cc(C)c1Cl [Example 1-79]
25 | 265 to 267 | 5.00 to 6.00 | Cl.N#Cc1cccc(Oc2ccc([N+](=O)[O-])cc2S(=O)(=O)N2CCNCC2)c1 [Example 1-10]
26 | 170 | > 6.00 | O=[N+]([O-])c1ccc(Oc2cc(Cl)cc(Cl)c2)c(S(=O)(=O)N2CC3CCCNC3C2)c1 (stereo not shown) [Example 1-48]
27 | 77 | < 5.00 | CC(=O)c1cccc(Oc2ccc([N+](=O)[O-])cc2S(=O)(=O)N2CCNCC2)c1.Cl [Example 1-31]
28 | 205 | > 6.00 | O=[N+]([O-])c1ccc(Oc2cc(Br)cc(Br)c2)c(S(=O)(=O)N2CCNCC2)c1 [Example 1-76]
29 | 240 to 241 | > 6.00 | O=C(O)C1CNCCN1S(=O)(=O)c1cc([N+](=O)[O-])ccc1Oc1cc(Cl)cc(Cl)c1 (stereo not shown) [Example 1-87]
30 | 150 | 5.00 to 6.00 | Cl.O=[N+]([O-])c1cccc(Oc2ccc([N+](=O)[O-])cc2S(=O)(=O)N2CCNCC2)c1 [Example 1-38]
31 | 232 to 233 | < 5.00 | Cc1cc(C)cc(Oc2ccc([N+](=O)[O-])cc2S(=O)(=O)N2CCN(C(=O)OC(C)(C)C)CC2)c1 [Example 1-1, tert-butyl 4-{[2-(3,5-dimethylphenoxy)-5-nitrophenyl]sulfonyl}-1-piperazinecarboxylate]
32 | 250 to 251 | < 5.00 | Cc1cc(C)cc(Oc2cc(C(F)(F)F)ccc2S(=O)(=O)N2CCNCC2)c1.Cl [Example 1-46]
33 | 167 to 169 | 5.00 to 6.00 | Cc1ccccc1Oc1ccc([N+](=O)[O-])cc1S(=O)(=O)N1CCNCC1.Cl [Example 1-12]
34 | 261 to 263 | > 6.00 | Cl.O=[N+]([O-])c1ccc(Oc2cc(Cl)cc(Cl)c2)c(S(=O)(=O)N2CCCNCC2)c1 [Example 1-91]
35 | 142 | 5.00 to 6.00 | Cc1ccc(Oc2ccc([N+](=O)[O-])cc2S(=O)(=O)N2CCNCC2)cc1C.Cl [Example 1-63]
36 | 166 to 167 | > 6.00 | Cc1ccc(Cl)c(Oc2ccc([N+](=O)[O-])cc2S(=O)(=O)N2CCNCC2)c1 [Example 1-80]
37 | 142 | > 6.00 | COc1ccccc1Oc1ccc([N+](=O)[O-])cc1S(=O)(=O)N1CCNCC1.Cl [Example 1-27]
38 | 211 to 213 | < 5.00 | COc1cc(OC)cc(Oc2ccc([N+](=O)[O-])cc2S(=O)(=O)N2CCNCC2)c1.Cl [Example 1-5]
39 | 260 to 264 | > 6.00 | Cl.O=[N+]([O-])c1ccc(Oc2cc(Cl)cc(Cl)c2)c(S(=O)(=O)N2CCNCC2)c1 [Example 1-33]
40 | 166 to 169 | 5.00 to 6.00 | Cl.O=[N+]([O-])c1ccc(Oc2ccccc2Cl)c(S(=O)(=O)N2CCNCC2)c1 [Example 1-28]
41 | 194 to 200 | < 5.00 | CC(=O)c1ccccc1Oc1ccc([N+](=O)[O-])cc1S(=O)(=O)N1CCNCC1.Cl [Example 1-30]
42 | 187 | > 6.00 | Cc1cc(C)c(C)c(Oc2ccc([N+](=O)[O-])cc2S(=O)(=O)N2CCNCC2)c1.Cl [Example 1-65]
43 | 159 | > 6.00 | Cc1cc(C)cc(Oc2ccc([N+](=O)[O-])cc2S(=O)(=O)N2CC(C)NCC2C)c1.Cl (stereo not shown) [Example 1-54]

Row | Compound | melting point [°C] | pIC50 (Human CCR3)
44 | Cl.O=[N+]([O-])c1ccc(Oc2cccc(C(F)(F)F)c2)c(S(=O)(=O)N2CCNCC2)c1 [Example 1-34] | 128 | > 6.00
